From ChEMBL document CHEMBL1146761, “Synthesis and biological activity of novel platinum(II) complexes of glutamate tethered to hydrophilic hematoporphyrin derivatives” (Bioorg Med Chem Lett, 2004)

Tests used:
[1] = tested on: Mus musculus; assay: In vivo antitumor activity of compound against leukemia L1210 cell line at 40 mg/kg; format: functional, organism-based; parameters: dose 40 mg/kg
[2] = tested on: L1210; assay: In vitro cytotoxicity activity of compound against leukemia L1210 cell line; format: functional, cell-based, Mus musculus
[3] = tested on: Mus musculus; assay: In vivo antitumor activity of compound against leukemia L1210 cell line at 60/30 mg/kg; value expressed as 97/107; format: functional
[4] = tested on: Mus musculus; assay: In vivo antitumor activity of compound against leukemia L1210 cell line at 4 mg/kg; format: functional, organism-based; parameters: dose 4 mg/kg
[5] = tested on: Mus musculus; assay: In vivo antitumor activity of compound against leukemia L1210 cell line at 60/30 mg/kg; value expressed as 102/106; format: functional

Compound: CARBOPLATIN [listing 1 of 2 here]
- T/C [1]: 168%

Compound: CARBOPLATIN [listing 2 of 2 here]
- IC50 ([2]; l1210): 9.92 µM

Compound: COCCOC(C)c1c(C)c2cc3[nH]c(cc4nc(cc5nc(cc1[nH]2)C(C)=C5CCC(=O)O)C(CCC(=O)O)=C4C)c(C)c3C(C)OCCOC (configuration not stated)
- IC50 ([2]; Mus musculus, L1210): 2.6 µM
- T/C [3]: 107%

Compound: CISPLATIN
- T/C [4]: 184%

Compound: COCCOCCOCCOC(C)c1c(C)c2cc3[nH]c(cc4nc(cc5nc(cc1[nH]2)C(C)=C5CCC(=O)O)C(CCC(=O)O)=C4C)c(C)c3C(C)OCCOCCOCCOC (configuration not stated)
- IC50 ([2]; Mus musculus, L1210): 6.6 µM
- T/C [5]: 106%
